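In this assay, cells in 96-well plates receive the compound at five concentrations for 48 hours. Endpoints are linearly interpolated between the surrounding concentrations. GI50: concentration for 50% inhibition of growth. At the TGI there is no net growth.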
How the values were obtained:
Experiment in all cases: NCI tumour cell line growth inhibition, 48 h
UO-31 renal = tested on: UO-31 renal
TK-10 renal = tested on: TK-10 renal
HCT-15 colon = tested on: HCT-15 colon
SNB-19 CNS = tested on: SNB-19 CNS
LOX IMVI melanoma = tested on: LOX IMVI melanoma
UACC-62 melanoma = tested on: UACC-62 melanoma
COLO 205 colon = tested on: COLO 205 colon
MDA-MB-231 breast = tested on: MDA-MB-231 breast
NCI-H226 lung = tested on: NCI-H226 lung
HT29 colon = tested on: HT29 colon

Row | SMILES | GI50 (UO-31 renal) [µM] | TGI (UO-31 renal) [µM] | GI50 (TK-10 renal) [µM] | TGI (TK-10 renal) [µM] | GI50 (HCT-15 colon) [µM] | TGI (HCT-15 colon) [µM] | GI50 (SNB-19 CNS) [µM] | TGI (SNB-19 CNS) [µM] | GI50 (LOX IMVI melanoma) [µM] | TGI (LOX IMVI melanoma) [µM] | GI50 (UACC-62 melanoma) [µM] | TGI (UACC-62 melanoma) [µM] | GI50 (COLO 205 colon) [µM] | TGI (COLO 205 colon) [µM] | GI50 (MDA-MB-231 breast) [µM] | TGI (MDA-MB-231 breast) [µM] | TGI (NCI-H226 lung) [µM] | TGI (HT29 colon) [µM] | GI50 (NCI-H226 lung) [µM] | GI50 (HT29 colon) [µM]
1 | O=C(O)c1cccc(COc2ccc([N+](=O)[O-])cc2Cl)c1 | > 100 | > 100 | 27.2 | > 100 | > 100 | > 100 | > 100 | > 100 | 94 | > 100 | > 100 | > 100 | > 100 | > 100 | > 100 | > 100 | – | – | – | –
2 | COC(=O)/C([Se]c1c(C)cc(C)cc1C)=C(/[Se]c1c(C)cc(C)cc1C)C(=O)OC | – | > 100 | – | > 100 | – | > 100 | – | > 100 | – | > 100 | – | > 100 | – | > 100 | – | – | > 100 | > 100 | – | –
3 | c1coc(-c2c3ccc(=[N+]4CCCCC4)cc-3oc3cc(N4CCCCC4)ccc23)c1 | 0.0353 | 0.336 | 0.036 | 0.382 | – | – | 0.195 | 1.56 | – | – | 0.102 | 1.09 | – | – | – | – | 1.87 | – | 0.138 | –
4 | COc1cc(/C=C\c2cc(OC)c(OC)c(OC)c2)cc(N/C=C\C(=O)c2c[nH]c3ccccc23)c1OC | 0.326 | 2.05 | 1.86 | 3.54 | 2.32 | 5.63 | 3.92 | 24.4 | – | – | 1.39 | 3.33 | 1.51 | 3.2 | 1.73 | 4.11 | 27.7 | 5.14 | 7.28 | 2.28
5 | C=Cc1ccc(C)[n+](C[Si](C)(C)O[Si](C)(C)C[n+]2cc(C=C)ccc2C)c1 | – | > 100 | – | > 100 | – | – | – | > 100 | – | > 100 | – | > 100 | – | > 100 | – | – | > 100 | > 100 | – | –
6 | Cc1ccc(C)c(N2C/C(=N\NC(=O)CC#N)C(c3nc4ccccc4s3)C(=O)C2=O)c1 (configuration not stated) | – | > 100 | – | > 100 | – | > 100 | – | > 100 | – | – | – | > 100 | – | > 100 | – | – | > 100 | > 100 | – | –
7 | Cc1[nH]c2ccccc2c1C1Cc2ccccc2N1C(=O)C#Cc1ccc([N+](=O)[O-])cc1 (configuration not stated) | – | > 100 | – | > 100 | – | – | – | > 100 | – | > 100 | – | > 100 | – | – | – | – | > 100 | > 100 | – | –
8 | O=C(Cc1nc2c3c(ccc2[nH]c1=O)C(=O)c1ccccc1C3=O)C(=O)Nc1ccccc1[N+](=O)[O-] | – | > 100 | – | 44.8 | – | – | – | 32.9 | – | 44.8 | – | 59 | – | 33.5 | – | – | 40.5 | 41.7 | – | –
9 | COc1c(C)n(CCO)ccc1=O | – | > 100 | – | > 100 | – | > 100 | – | > 100 | – | > 100 | – | > 100 | – | > 100 | – | – | > 100 | > 100 | – | –
10 | COc1ccc(-c2nc(-c3cc(OC)cc(OC)c3)[nH]c2-c2ccc(OC)cc2)cc1 | 5.72 | > 100 | 53.1 | > 100 | 5.04 | > 100 | > 100 | > 100 | – | – | 4.75 | > 100 | 3.68 | > 100 | 6.82 | > 100 | > 100 | > 100 | 5.47 | 4.97
11 | Cc1ccccc1C1=[N+]([O-])c2ccc(Cl)cc2C1=O | – | 31.2 | – | 34.5 | – | 31.9 | – | 64.4 | – | 20.2 | – | 24.9 | – | 20.2 | – | – | 30.6 | 20.3 | – | –
12 | CC1=C(C#N)C(=O)CC(c2ccc(Cl)cc2)N(C)N1 (configuration not stated) | – | – | – | > 100 | – | > 100 | – | > 100 | – | > 100 | – | – | – | – | – | – | > 100 | > 100 | – | –
13 | Cc1cccc(C2=C/C(=C(\SS/C(C(=O)c3ccc(OCC(=O)O)c(Cl)c3Cl)=C3\C=C(c4cccc(C)c4)SS3)C(=O)c3ccc(OCC(=O)O)c(Cl)c3Cl)SS2)c1 | – | 32.2 | – | > 88.2 | – | > 51.6 | – | 43.7 | – | 18 | – | 38.5 | – | 38.3 | – | – | 35.6 | > 75 | – | –
14 | COc1ccc(C(=O)c2cc(OC)c(OC)c(OC)c2)cc1OC | – | 39.4 | – | > 100 | – | > 100 | – | – | – | > 100 | – | > 100 | – | – | – | > 100 | – | 9.75 | – | –
15 | O=c1[nH]cnc(NC2C=C(CO)C(O)C2O)c1[N+](=O)[O-] (configuration not stated) | – | > 100 | – | > 100 | – | > 54.7 | – | > 100 | – | > 59.6 | – | > 100 | – | > 100 | – | – | > 100 | > 100 | – | –
16 | COc1cc(/C=C2\[C@H]3c4c(c(OC)c(C)c(OC)c4OC)CC(C(=O)N2Cc2ccccc2)N3C)c(OC)c(C)c1OC | – | 41.8 | – | 79.2 | – | – | – | 73.8 | – | 33.4 | – | 30.4 | – | 32.5 | – | – | 24 | 41.1 | – | –
17 | Cc1cc2c(c(C(N)=O)c1C)-c1ccccc1C2=O | – | > 100 | – | > 100 | – | > 100 | – | > 100 | – | > 100 | – | > 100 | – | > 100 | – | – | – | > 100 | – | –
18 | CCCC/C(=C\C1=C(C)C(=O)C(OC)=C(OC)C1=O)C(=O)O | > 100 | > 100 | > 100 | > 100 | > 100 | > 100 | > 100 | > 100 | > 100 | > 100 | > 100 | > 100 | > 100 | > 100 | 33.9 | > 100 | – | > 100 | – | > 100
19 | CCOC(=O)NC(=O)c1cn(C2CCCCC2)c(=O)[nH]c1=O | – | > 100 | – | > 100 | – | > 100 | – | > 100 | – | > 100 | – | > 100 | – | > 100 | – | – | > 100 | > 100 | – | –
20 | CC1=NN(C(=O)CC(=O)Nc2ccccc2F)C(=O)C1N=Nc1ccccc1[N+](=O)[O-] (configuration not stated) | – | > 100 | – | > 100 | – | > 100 | – | > 100 | – | – | – | 69 | – | > 100 | – | – | > 100 | > 100 | – | –
